Data reported in patent publication US9663514B2 (Takeda Pharmaceutical Company Limited, priority 2011, dated 2017).

What follows are compounds tested against T1, SYK (Homo sapiens, UniProt P43405) (assay: SYK inhibition: in vitro assay of SYK-mediated phosphorylation of FAM-labeled substrate (Caliper LC-3000)). Conditions: SYK kinase domain (residues 356-635); 2.4 nM SYK and 45 μM ATP, 3 μM 5FAM-KKKKEEIYFFFG-NH2, RT 60 min, pH 7.3; pIC50 = −log(IC50), IC50 molar.
T1 construct: The SYK kinase domain (residues 356-635) is amplified via PCR; made in house; host or cells: Sf9 insect cells (baculovirus, pFastBac1)
Format: biochemical
Experimental: The ability of compounds to inhibit SYK activity may be assessed using a variety of methods, including in vitro and in vivo assays. The following in vitro assay measures a test compound's ability to inhibit SYK-mediated phosphorylation of a FAM-labeled SYK-specific substrate (5FAM-KKKKEEIYFFFG-NH2).
SYK protein is prepared from cDNA encoding human spleen tyrosine kinase and is expressed in insect cells using a baculovirus expression vector. The cDNA (IMAGE: 3542895) is purchased from Open Biosystems. The SYK kinase domain (residues 356-635) is amplified via PCR and cloned into plasmid pFastBacl (Invitrogen) at BamHI/XbaI sites. Recombinant plasmid encoding Met-Ala-Lys-SYK(356-635)-HHHHHH is sequenced and transformed into E. coli DH10Bac strain. The recombinant bacmid DNA is isolated and transfected into Sf9 insect cells. Recombinant virus is harvested 72 h after transfection. High titer viral stock is prepared by infecting Sf9 cells at a multiplicity of infection (MOI) of approximately 0.01. A suspension of Sf9 cells (10 L) is infected with recombinant virus (MOI=5) and is incubated in a Wave Bioreactor (GE-Healthcare) for 48 h. The cells are harvested and stored at −80° C.
To purify the expressed protein, the frozen Sf9 cells (10 L) are broken into small (<1 cm) particles and suspended in a lysis buffer (300 mL) containing 20 mM Tris (pH 7.6), 0.25 mM TCEP, 100 mM NaCl, 5% glycerol and a protease inhibitor. The suspension is stirred at RT until completely thawed, lysed an additional 2-4 min on a rotary blade homogenizer, and then centrifuged at 4200 g for 1 h. Following centrifugation, the supernatant is poured through cheese cloth and combined with a nickel chelating resin (Probond Resin™, Invitrogen) which is pre-equilibrated in a wash buffer containing 10 mM Tris (pH 7.6), 0.25 mM TCEP, 300 mM NaCl, 5% glycerol, and 20 mM imidazole. The mixture is agitated for 3 h in a cold room and then centrifuged at 900 g for 10 min. The resin is dispersed in wash buffer (50 mL), centrifuged for 10 min at 900 g, re-dispersed in a small amount of wash buffer (5 mL), and then pour into a disposable Poly-Prep chromatography column, through which wash buffer is passed by gravity until no protein is observed in coomassie buffer (about 120 mL of wash buffer). An elution buffer (30 mL) containing 10 mM HEPES (pH 7.4), 150 mM NaCl, 10% glycerol, 5 mM DTT, and 400 mM imidazole is used to elute the SYK protein from the resin. The eluate is concentrated (5 mL) and further purified on a Superdex 200 column (1.2 mL/min for 160 min, 10 mM HEPES (pH 7.4), 10 mM NaCl, 10 mM MgCl, 0.1 mM EDTA, and 0.25 mM TCEP). The chromatographed fractions are run on SDS-PAGE and the requisite fractions are pooled and concentrated. Final delivery buffer is 10 mM HEPES (pH 7.4), 10 mM Methione, 150 mM NaCl, 10% glycerol, 5 mM DTT.
SYK inhibition is determined using a black 384 well plate format in buffer containing 50 mM HEPES, 10 mM NaCl, 10 mM MgCl2, 0.2 mM EDTA, 0.01% EDA (Brij®35), 1 mM DTT, and 0.1 mg/ml BSA at pH 7.3. Each test compound is prepared in DMSO using 2-fold serial dilutions for 11 data points, which are added to the buffer so that each dilution contains 3% DMSO. To each well is added 2 μL of 3 μM SFAM-KKKKEEIYFFFG-NH2 (in buffer), 2 μL of diluted test compound (3% DMSO in buffer), and 2 μL of 2.4 nM SYK and 45 μM ATP (in buffer). The reaction mixture is incubated at RT for 60 min, and quenched by adding 50 mM Hepes, 30 mM EDTA, 0.1% Triton X-100 (pH 7.3). To quantify the fluorescent-labeled substrate and product following reaction, the test plate is loaded on a Caliper LC-3000, which measures percent of conversion by microfluidic-based separation. Corresponding IC50 values are calculated by non-linear curve fitting of the compound concentrations and percent of inhibition to the standard IC50 equation and reported as pIC50, i.e., −log(IC50), where IC50 is molar concentration.

| IC50 | SMILES |
| --- | --- |
| 50.1 nM | N[C@H]1COCC[C@H]1Nc1nc(-c2cc(C(F)F)ns2)c2c(c1F)CNC2=O [Example 1, 6-((3R,4R)-3-Aminotetrahydro-2H-pyran-4-ylamino)-4-(3-(difluoromethyl)isothiazol-5-yl)-7-fluoro-1H-pyrrolo[3,4-c]pyridin-3(2H)-one] |
| 3.98 nM | CCc1cc(-c2nc(N[C@@H]3CCOC[C@@H]3N)c(F)c3c2C(=O)NC3)sn1 [Example 2, 6-((3R,4R)-3-Aminotetrahydro-2H-pyran-4-ylamino)-4-(3-ethylisothiazol-5-yl)-7-fluoro-1H-pyrrolo[3,4-c]pyridin-3(2H)-one] |
| 1.26 nM | CCc1cc(-c2nc(N[C@@H]3CCCC[C@@H]3N)c(F)c3c2C(=O)NC3)sn1 [Example 3, 6-((1R,2S)-2-Aminocyclohexylamino)-4-(3-ethylisothiazol-5-yl)-7-fluoro-1H-pyrrolo[3,4-c]pyridin-3 (2H)-one] |
| 12.6 nM | N[C@H]1COCC[C@H]1Nc1nc(-c2ccns2)c2c(c1F)CNC2=O [Example 4, 6-((3R,4R)-3-Aminotetrahydro-2H-pyran-4-ylamino)-7-fluoro-4-(isothiazol-5-yl)-1H-pyrrolo[3,4-c]pyridin-3(2H)-one] |
| 3.98 nM | N[C@H]1CCCC[C@H]1Nc1nc(-c2ccns2)c2c(c1F)CNC2=O [Example 5, 6-((1R,2S)-2-Aminocyclohexylamino)-7-fluoro-4-(isothiazol-5-yl)-1H-pyrrolo[3,4-c]pyridin-3 (2H)-one] |
| 0.794 nM | N[C@H]1COCC[C@H]1Nc1nc(-c2cc(C3CC3)ns2)c2c(c1F)CNC2=O [Example 6, 6-((3R,4R)-3-Aminotetrahydro-2H-pyran-4-ylamino)-4-(3-cyclopropylisothiazol-5-yl)-7-fluoro-1H-pyrrolo[3,4-c]pyridin-3(2H)-one] |
| 0.2 nM | N[C@H]1COCC[C@H]1Nc1nc(-c2cc3cc(F)ccc3s2)c2c(c1F)CNC2=O [Example 7, 6-((3R,4R)-3-Aminotetrahydro-2H-pyran-4-ylamino)-7-fluoro-4-(5-fluorobenzo[b]thiophen-2-yl)-1H-pyrrolo[3,4-c]pyridin-3(2H)-one] |
| 20 nM | N#Cc1ccc(-c2nc(N[C@@H]3CCOC[C@@H]3N)c(F)c3c2C(=O)NC3)s1 [Example 8, 5-(6-((3R,4R)-3-Aminotetrahydro-2H-pyran-4-ylamino)-7-fluoro-3-oxo-2,3-dihydro-1H-pyrrolo[3,4-c]pyridin-4-yl)thiophene-2-carbonitrile] |
| 0.2 nM | N[C@H]1COCC[C@H]1Nc1nc(-c2cc3ccncc3s2)c2c(c1F)CNC2=O [Example 9, 6-((3R,4R)-3-Aminotetrahydro-2H-pyran-4-ylamino)-7-fluoro-4-(thieno[2,3-c]pyridin-2-yl)-1H-pyrrolo[3,4-c]pyridin-3(2H)-one] |
| 12.6 nM | N[C@H]1COCC[C@H]1Nc1nc(-c2ccc(F)s2)c2c(c1F)CNC2=O [Example 12, 6-((3R,4R)-3-Aminotetrahydro-2H-pyran-4-ylamino)-7-fluoro-4-(5-fluorothiophen-2-yl)-1H-pyrrolo[3,4-c]pyridin-3(2H)-one] |
| 0.251 nM | N[C@H]1COCC[C@H]1Nc1nc(-c2cc3cccnc3s2)c2c(c1F)CNC2=O [Example 13, 6-((3R,4R)-3-Aminotetrahydro-2H-pyran-4-ylamino)-7-fluoro-4-(thieno[2,3-b]pyridin-2-yl)-1H-pyrrolo[3,4-c]pyridin-3(2H)-one] |
| 0.158 nM | N[C@H]1CCCC[C@H]1Nc1nc(-c2cc3cccnc3s2)c2c(c1F)CNC2=O [Example 14, 6-((1R,2S)-2-Aminocyclohexylamino)-7-fluoro-4-(thieno[2,3-b]pyridin-2-yl)-1H-pyrrolo[3,4-c]pyridin-3(2H)-one] |
| 0.158 nM | N[C@H]1CCCC[C@H]1Nc1nc(-c2cc3ccncc3s2)c2c(c1F)CNC2=O [Example 15, 6-((1R,2S)-2-Aminocyclohexylamino)-7-fluoro-4-(thieno[2,3-c]pyridin-2-yl)-1H-pyrrolo[3,4-c]pyridin-3(2H)-one] |
| 0.316 nM | N[C@H]1CCCC[C@H]1Nc1nc(-c2cc3cc(F)ccc3s2)c2c(c1F)CNC2=O [Example 16, 6-(((1R,2S)-2-Aminocyclohexyl)amino)-7-fluoro-4-(5-fluorobenzo[b]thiophen-2-yl)-1H-pyrrolo[3,4-c]pyridin-3(2H)-one] |
| 0.251 nM | N[C@H]1COCC[C@H]1Nc1nc(-c2cc3cnccc3s2)c2c(c1F)CNC2=O [Example 17, 6-((3R,4R)-3-Aminotetrahydro-2H-pyran-4-ylamino)-7-fluoro-4-(thieno[3,2-c]pyridin-2-yl)-1H-pyrrolo[3,4-c]pyridin-3(2H)-one] |
| 0.316 nM | N[C@H]1CCCC[C@H]1Nc1nc(-c2cc3cnccc3s2)c2c(c1F)CNC2=O [Example 18, 6-((1R,2S)-2-Aminocyclohexylamino)-7-fluoro-4-(thieno[3,2-c]pyridin-2-yl)-1H-pyrrolo[3,4-c]pyridin-3(2H)-one] |
| 0.158 nM | N[C@H]1COCC[C@H]1Nc1nc(-c2cc3ccc(F)cc3s2)c2c(c1F)CNC2=O [Example 19, 6-((3R,4R)-3-Aminotetrahydro-2H-pyran-4-ylamino)-7-fluoro-4-(6-fluorobenzo[b]thiophen-2-yl)-1H-pyrrolo[3,4-c]pyridin-3(2H)-one] |
| 0.251 nM | N[C@H]1CCCC[C@H]1Nc1nc(-c2cc3ccc(F)cc3s2)c2c(c1F)CNC2=O [Example 20] |
| 0.316 nM | N#Cc1ccc2sc(-c3nc(N[C@@H]4CCOC[C@@H]4N)c(F)c4c3C(=O)NC4)cc2c1 [Example 21, 2-(6-((3R,4R)-3-Aminotetrahydro-2H-pyran-4-ylamino)-7-fluoro-3-oxo-2,3-dihydro-1H-pyrrolo[3,4-c]pyridin-4-yl)benzo[b]thiophene-5-carbonitrile] |
| 0.126 nM | N#Cc1ccc2sc(-c3nc(N[C@@H]4CCCC[C@@H]4N)c(F)c4c3C(=O)NC4)cc2c1 [Example 22, 2-(6-((1R,2S)-2-Aminocyclohexylamino)-7-fluoro-3-oxo-2,3-dihydro-1H-pyrrolo[3,4-c]pyridin-4-yl)benzo[b]thiophene-5-carbonitrile] |
| 0.398 nM | N[C@H]1COCC[C@H]1Nc1nc(-c2cc3c(F)cccc3s2)c2c(c1F)CNC2=O [Example 23, 6-((3R,4R)-3-Aminotetrahydro-2H-pyran-4-ylamino)-7-fluoro-4-(4-fluorobenzo[b]thiophen-2-yl)-1H-pyrrolo[3,4-c]pyridin-3(2H)-one] |
| 0.398 nM | N[C@H]1CCCC[C@H]1Nc1nc(-c2cc3c(F)cccc3s2)c2c(c1F)CNC2=O [Example 24, 6-((1R,2S)-2-Aminocyclohexylamino)-7-fluoro-4-(4-fluorobenzo[b]thiophen-2-yl)-1H-pyrrolo[3,4-c]pyridin-3(2H)-one] |
| 12.6 nM | N[C@H]1COCC[C@H]1Nc1nc(-c2cc3ncccc3s2)c2c(c1F)CNC2=O [Example 25, 6-((3R,4R)-3-Aminotetrahydro-2H-pyran-4-ylamino)-7-fluoro-4-(thieno[3,2-b]pyridin-2-yl)-1H-pyrrolo[3,4-c]pyridin-3(2H)-one] |
